Laboratory results taken from patent publication US6031135A, “Trimethylsphingosine derivatives” (Oncomembrane, Inc., priority 1996, dated 2000).
“Also recorded” adds a separate entry of the source.

Tests used:
GMP-140 = GMP-140 expression in platelets (flow cytometry with mAb AC1.2); format: cell-based; settings: platelets preincubated with compound; thrombin or PMA activation
Method: GMP-140 expression was determined by (i) flow cytometry with mAb AC1.2, which is directed to GMP-140 and obtained from Dr. Furie (Tufts Univ. Sch. Med., Boston, Mass.) and (ii) adhesion of HL60 cells on platelet-coated solid phase.
A suspension of platelets (1×10^8 /ml) in Tyrode buffer was preincubated with inhibitor at pH 7.2, 37° C., for 5 minutes, then supplemented with activator, either thrombin (final concentration 1 U/ml) or phorbol 12-myristate 13-acetate (PMA) (final concentration 10^-7 M), and then the mixture was incubated at 37° C. for 10 minutes. Platelets were fixed with an equal volume of 2% (w/v) paraformaldehyde in PBS and washed 2 times with PBS containing 1% (w/v) BSA.
The paraformaldehyde-fixed platelets were incubated with 50 μl of mAb AC1.2 (2.5 μg/ml) at room temperature for 30 minutes. […]
The platelets were analyzed in an Epics flow cytometer (Coulter Corp.) with suitable gating. To calculate the inhibitory effect of various reagents, the mean fluorescence intensity of resting platelets (obtained on incubation of platelets without activator) was subtracted from the value for the activated platelet sample.

[1] = tested on: 40 kD (or 47 kD) platelet protein; assay: phosphorylation of platelet protein on thrombin stimulation; format: cell-based
Excerpt: On thrombin stimulation, a 40 kD (or 47 kD) platelet protein is phosphorylated. […] While not wanting to be bound by their statement, the inventors believe that absence of phosphorylated 40 kD (or 47 kD) protein prevents platelet aggregation.

platelets = assay: platelet aggregation (aggregometer, thrombin or ADP); format: cell-based; settings: background statement
Method: Platelets were isolated from platelet-rich plasma (purchased from the Oregon Red Cross, Portland, Oreg.). Contaminating erythrocytes were removed by centrifugation (80×g for 10 minutes). Platelets were obtained by centrifugation (300×g for 10 minutes), washed once in Tyrode buffer (pH 6.5) containing 22 mM trisodium citrate and 0.35% (w/v) BSA and resuspended in the same buffer to obtain a concentration of 1-2×10^9 platelets/ml. All procedures were performed at room temperature.
A suspension of platelets (about 3.5×10^8 /ml) in Tyrode buffer was preincubated with inhibitor compounds (H-7 [1-(5-isoquinolinylsulfonyl)-2-methylpiperazine, a synthetic protein kinase-C inhibitor purchased from Seikagaku America Inc., St. Petersburg, Fla.], Calphostin-C [a synthetic protein kinase-C inhibitor obtained from Dr. Saitoh, Kyowa Hakko Co., Ltd., Machida, Tokyo, Japan], sphingosine [purchased from Sigma, St. Louis, Mo.] and dimethylsphingosine and trimethylsphingosine [synthesized according to Igarashi et al., Biochem., 28, 6796, 1989]) followed by addition of thrombin or ADP (both purchased from Sigma). Platelet aggregation was evaluated by transmittance change using an aggregometer (Chrono-log Corp., Havertown, Pa.) equipped with a computer analyzer.

[2] = tested on: 47 kDa and 65 kDa proteins; assay: PMA-stimulated protein phosphorylation in 32P-labeled neutrophils; format: cell-based, human; settings: neutrophils pre-incubated with 15-45 μM, then 1.5 μM PMA
Method: Excess unbound components were removed by centrifugation and the pellets were resuspended in the same buffer, repeating twice. The cells then were divided into 7 treatment groups, each containing ≈1×10^7 cells in a total volume of 0.4 ml. TMS, SPN or DMS was added to a suspension and incubated at 37° C. for 10 min, followed by addition of PMA to a final concentration of 1.5 μM. Two minutes later, the reaction was terminated by adding 0.1 ml of Laemmli sample buffer and 20 mM EDTA, followed by heating at 100° C. for 5 min. Aliquots were separated through 10% sodium dodecyl sulfate gels using known procedures. ^32 P incorporation was visualized by autoradiography.

neutrophils [3] = assay: phagokinetic activity of neutrophils on gold sol-coated plates; format: cell-based, human
Excerpt: The phagokinetic activity of neutrophils on gold sol-coated plates can be determined by a technique essentially as taught in Albrecht-Buehler (Cell, 11, 395, 1977). […] The TMS-dependent inhibitory effect is reversed completely when the culture medium is replaced with TMS-free medium. Thus, the inhibitory effect of TMS on phagokinetic activity is not dependent on cytotoxicity.

neutrophils [4] = assay: superoxide production in neutrophils (reduction of cytochrome C); format: cell-based, human
Method: Human neutrophils were obtained from normal male adults. Heparinized peripheral blood was mixed gently with an equal amount of 1% dextran solution in PBS in a 60 ml injection syringe. The mixture was allowed to sit vertically for 60 to 90 minutes at 37° C. The upper phase, which is rich in white blood cells, was mounted gently on the same volume of Ficoll-Paque (Pharmacia LKB, Uppsala, Sweden) in Falcon 2095 plastic test tubes (Becton Dickinson Labware, Lincoln Park, N.J.). Centrifugation at 450g for 30 min at 4° C. brought the neutrophils to the bottom of the tubes. The upper phase and interface, which contains lymphocytes, were removed carefully by aspiration.
Contaminating erythrocytes were removed from the cell pellet by hypotonic lysis by resuspending the cell pellet in ice-cold distilled water for 30 sec then adding an equal volume of ice-cold 1.8% NaCl solution. After centrifugation at 80g for 10 min, the cells were resuspended with a suitable buffer or media.
The final preparation consisted of more than 98% neutrophils, as determined by Wright-Giemsa staining. The suspension was stored at 4° C. and used within 3 hr.

neutrophils [5] = assay: neutrophil trans-endothelial migration through HUVEC monolayer; format: cell-based, human; settings: IL-1β-activated EC's; pre-treatment of neutrophils
Method: A characteristic of neutrophils is the ability to adhere to activated EC's and to migrate through the EC monolayer into the vascular or extravascular matrix. The effect of TMS on neutrophil interactions with EC's and their subsequent trans-endothelial migration thereof can be monitored in vitro using human umbilical endothelial cells (HUVEC's) (Luscinskas et al., J. Imm., 146, 1617, 1991). Neutrophils are added to a HUVEC monolayer and neutrophil-HUVEC interactions are assessed microscopically following fixation, embedding and staining of monolayer sections.
Under physiological conditions, neutrophils are able to migrate into the collagenous matrix through the EC monolayer. When EC's are activated with IL-1β in M199 medium for 4 hours, neutrophils migrate into the collagenous matrix within 90 minutes.

CCCCCCCCCCCCC/C=C/C(O)C(CO)[N+](C)(C)C (stereo not shown) [TMS, N,N,N-trimethylsphingosine]
GMP-140 expression (GMP-140): down-regulated or blocked; also recorded: inhibits GMP-140 expression
phosphorylation of the 40 kD (or 47 kD) platelet protein [1]: inhibits phosphorylation
Platelet aggregation and associated ATP secretion (platelets): inhibited strongly
phosphorylation of 47 kDa and 65 kDa proteins [2]: diminished significantly; also recorded: had an affect on phosphorylation
Phagokinetic activity (neutrophils [3]): suppressed significantly
Superoxide production in neutrophils (neutrophils [4]): inhibited by TMS in a dose-dependent manner
Neutrophil migration (neutrophils [5]): inhibited strongly
